Values quoted from earlier work, collected in patent US20250101519A1, “USE OF HYPOXIA-INDUCIBLE FACTOR 1 ALPHA AS MARKER IN DEPRESSION RECURRENCE DIAGNOSIS” (NINGBO UNIVERSITY, priority 2022, published 2025).

Columns and labels:
[1] = in humans
[2] = in mice; other references report various values

In the case of CNCCC(Oc1ccc(C(F)(F)F)cc1)c1ccccc1 (centres unmarked) [fluoxetine], the metabolic clearance half-life [1] is given as 4 to 6 days and the clearance half-life [2] is given as 9 h.
